In assay [1] the target is human vasopressin V1a receptor (Homo sapiens (Human), UniProt P37288). Briefly: Vasopressin V1a receptor binding assay. To be noted: selectivity quotient, human V1a vs human V1b. As to the method:
The test substances were dissolved in a concentration of 5 mM M in DMSO. Further dilution of these DMSO solutions took place as described for V1b.
The membrane pellet was again homogenized in a High-Pressure-Homogenizer, Polytec 50K at 1500 PSI (Heinemann, Germany) and subsequently taken up in 50 mM Tris-HCl, pH 7.4, homogenized and stored in aliquots frozen in liquid nitrogen at −190° C.
The incubation buffer was: 50 mM Tris, 10 mM MgCl2, 0.1% BSA, pH 7.4.
Duplicate determinations were carried out.
After incubation (60 minutes at room temperature), the samples were processed as described for V1b.
The binding parameters were calculated by nonlinear regression in SAS.

In assay [2] the target is human vasopressin V1b receptor (Homo sapiens (Human), UniProt P47901). Briefly: biochemical.
Chain of human vasopressin V1b receptor (P47901 whole entry): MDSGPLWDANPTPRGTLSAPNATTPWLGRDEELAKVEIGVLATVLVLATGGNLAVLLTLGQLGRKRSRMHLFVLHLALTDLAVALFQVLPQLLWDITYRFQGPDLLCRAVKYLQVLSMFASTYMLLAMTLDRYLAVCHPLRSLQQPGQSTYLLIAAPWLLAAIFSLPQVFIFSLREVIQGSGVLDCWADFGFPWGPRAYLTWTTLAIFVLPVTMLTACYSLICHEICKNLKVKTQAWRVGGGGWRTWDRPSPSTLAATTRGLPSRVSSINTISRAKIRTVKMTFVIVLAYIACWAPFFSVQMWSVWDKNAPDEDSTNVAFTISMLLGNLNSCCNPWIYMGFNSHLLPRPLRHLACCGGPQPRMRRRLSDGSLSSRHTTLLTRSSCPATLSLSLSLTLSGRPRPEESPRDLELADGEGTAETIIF

Molecules are shown by their SMILES. A value given as a limit tells only on which side of the number the result lay.

Chain of human vasopressin V1a receptor (P37288 whole entry): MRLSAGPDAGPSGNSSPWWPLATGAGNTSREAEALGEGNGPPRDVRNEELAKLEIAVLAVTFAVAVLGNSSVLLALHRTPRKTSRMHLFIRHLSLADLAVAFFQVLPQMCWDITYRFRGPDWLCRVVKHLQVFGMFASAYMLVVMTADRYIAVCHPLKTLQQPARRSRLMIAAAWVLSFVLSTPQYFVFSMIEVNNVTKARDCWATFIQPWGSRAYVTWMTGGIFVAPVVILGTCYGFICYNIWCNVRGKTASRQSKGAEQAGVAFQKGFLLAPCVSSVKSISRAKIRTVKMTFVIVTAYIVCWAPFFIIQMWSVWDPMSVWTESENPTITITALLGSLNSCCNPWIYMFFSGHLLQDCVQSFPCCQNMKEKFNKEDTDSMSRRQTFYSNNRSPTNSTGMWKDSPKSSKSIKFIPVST

With `COC1CN(C[C@H]2C[C@@H](c3ccc4nc(-c5cccc(Cl)c5)n(CC(=O)NC(C)C)c(=O)c4c3)C2)C1` [Example 35, cis-2-[2-(3-Chlorophenyl)-6-[3-[(3-methoxyazetidin-1-yl)methyl]cyclobutyl]-4-oxo-quinazolin-3-yl]-N-isopropyl-acetamide], the “Ki(h-V1a)/Ki(h-V1b)” value in assay [1] was “+++ (>75)”. Moreover, the Ki in assay [2] was 10 to 100 nM.

Regarding `CC(C)NC(=O)Cn1c(-c2cccc(Cl)c2)nc2ccc([C@H]3C[C@@H](CN4CCSCC4)C3)cc2c1=O` [Example 8, cis-2-[2-(3-Chlorophenyl)-4-oxo-6-[3-(thiomorpholinomethyl)cyclobutyl]quinazolin-3-yl]-N-isopropyl-acetamide], the “Ki(h-V1a)/Ki(h-V1b)” value in assay [1] is “+++ (>75)”. In assay [2], the Ki was < 1 nM.

For the compound `CC(C)NC(=O)Cn1c(-c2cccc(Cl)c2)nc2ccc([C@H]3C[C@@H](CN4CC[C@H](F)C4)C3)cc2c1=O` [Example 16, cis-2-[2-(3-Chlorophenyl)-6-[3-[ [(3S)-3-fluoropyrrolidin-1-yl]methyl]cyclobutyl]-4-oxo-quinazolin-3-yl]-N-isopropyl-acetamide], in assay [1], the “Ki(h-V1a)/Ki(h-V1b)” value is on record as “+++ (>75)”. Further, in assay [2], the Ki was in the range of 1 to 10 nM.

As to `CC(C)NC(=O)Cn1c(-c2cccc(Cl)c2)nc2ccc([C@H]3C[C@@H](CN4CCC[C@H](O)C4)C3)cc2c1=O` [Example 37, cis-2-[2-(3-Chlorophenyl)-6-[3-[ [(3S)-3-hydroxy-1-piperidyl]methyl]cyclobutyl]-4-oxo-quinazolin-3-yl]-N-isopropyl-acetamide], the “Ki(h-V1a)/Ki(h-V1b)” value in assay [1] was “+++ (>75)”. For the same compound, the Ki in assay [2] lay within 1 to 10 nM.

Regarding `CCOC1CCN(C[C@H]2C[C@@H](c3ccc4nc(-c5cccc(Cl)c5)n(CC(=O)NC(C)C)c(=O)c4c3)C2)CC1` [Example 20, cis-2-[2-(3-Chlorophenyl)-6-[3-[(4-ethoxy-1-piperidyl)methyl]cyclobutyl]-4-oxo-quinazolin-3-yl]-N-isopropyl-acetamide], the “Ki(h-V1a)/Ki(h-V1b)” value in assay [1] is “+++ (>75)”. Moreover, the Ki in assay [2] was 10 to 100 nM.

As for `CC(C)NC(=O)Cn1c(-c2cccc(Cl)c2)nc2ccc([C@H]3C[C@@H](CN4CCC(C#N)CC4)C3)cc2c1=O` [Example 7, Cis-2-[2-(3-Chlorophenyl)-6-[3-[(4-cyano-1-piperidyl)methyl]cyclobutyl]-4-oxo-quinazolin-3-yl]-N-isopropyl-acetamide], the “Ki(h-V1a)/Ki(h-V1b)” value in assay [1] was “+++ (>75)”. The compound further registered a Ki in assay [2] of 10 to 100 nM.

`C[C@H](NC(=O)Cn1c(-c2cccc(Cl)c2)nc2ccc([C@H]3C[C@@H](CN4CCCCC4)C3)cc2c1=O)C(F)(F)F` [Example 45]: the “Ki(h-V1a)/Ki(h-V1b)” value in assay [1] was “+++ (>75)”. In addition, the inhibition constant Ki in assay [2] is 1 to 10 nM.

Take `CC(C)NC(=O)Cn1c(-c2cccc(Cl)c2)nc2ccc([C@H]3C[C@@H](CN4CCOCC4)C3)cc2c1=O` [Example 13, cis-2-[2-(3-Chlorophenyl)-6-[3-(morpholinomethyl)cyclobutyl]-4-oxo-quinazolin-3-yl]-N-isopropyl-acetamide]: in assay [1], the “Ki(h-V1a)/Ki(h-V1b)” value is given as “+++ (>75)”. This compound also came in with a Ki in assay [2] of 1 to 10 nM.

In the case of `CC(C)NC(=O)Cn1c(-c2cccc(Cl)c2)nc2ccc(C3CC3CCN3CCCCC3)cc2c1=O` (centres unmarked) [Example 3, 2-[2-(3-Chlorophenyl)-4-oxo-6-[2-[2-(1-piperidyl)ethyl]cyclopropyl]quinazolin-3-yl]-N-isopropyl-acetamide], the “Ki(h-V1a)/Ki(h-V1b)” value in assay [1] is “++ (25-75)”. Moreover, the Ki in assay [2] fell in the range of 10 to 100 nM.

Regarding `CC(C)NC(=O)Cn1c(-c2cccc(Cl)c2)nc2ccc([C@H]3C[C@H](CN4CCCCC4)C3)cc2c1=O` [Example 2b, trans-2-[2-(3-chlorophenyl)-4-oxo-6-[3-(1-piperidylmethyl)cyclobutyl]quinazolin-3-yl]-N-isopropyl-acetamide], in assay [1], the “Ki(h-V1a)/Ki(h-V1b)” value is recorded as “+++ (>75)”. In assay [2], this compound returned a Ki of 10 to 100 nM.
